Measurements taken from publication PMC11235165, “Delocalized quinolinium-macrocyclic peptides, an atypical chemotype for CNS penetration” (Science Advances, 2024).
Like-named read-outs stand apart in the source and are kept apart here.

Key:
Caco-2 cells = tested on: Caco-2 cells; set-up: method as in PMID 26352530; conditions: cited from earlier work
[1] = set-up: method as in PMID 26352530; conditions: cited from earlier work
[2] = Hepatocyte clearance (human); assay type: in vitro ADME; conditions: human hepatocytes
Cyclophilin A (CypA) = Cyclophilin A (CypA) (Homo sapiens, UniProt P62937); test: Fluorescence polarization cyclophilin A binding assay; conditions: Table S7; focused SAR set; read-out: CypA Ki
Description: (§1) This was determined using a fluorescence polarization assay ([12]).
Fluorescence Polarization assay.
(§2) Briefly, titration of a single probe concentration
measure binding affinities.
FP -probe. Enzyme, inhibitor and
(ph7.4)) supplemented with 1 mM PMSF.

[3] = mouse, in vivo; for AUC(0-inf) / AUC(0-t) / half-life: ip, 10 mg/kg
Description: (§3) The remaining five compounds were evaluated for plasma and brain levels in a pharmacokinetic experiment in mice.
Pharmacokinetic analysis.
(Cyprotex UK) using LCMSMS.

in vivo = conditions: ABH, mouse, ip, 10 mg/kg; for level at 24 h: Brain concentrations at 24 hours
Description: as §3
Pharmacokinetic analysis.
(Cyprotex UK) using LCMSMS.

hERG = hERG (Homo sapiens, UniProt Q12809); test: hERG inhibition; assay type: biochemical; conditions: for inhibition at 25 µM: hERG (% inhibition at 25 μM)
CypD = CypD (Homo sapiens, UniProt P30405); test: Fluorescence polarization cyclophilin D binding assay; conditions: Table S7; focused SAR set; read-out: CypD Ki
Description: as §1
Fluorescence Polarization assay.
as §2
measure binding affinities.

[4] = Hepatocyte clearance (mouse); assay type: in vitro ADME; conditions: mouse hepatocytes
[5] = mouse, in vivo; for Cl_obs: ip, 10 mg/kg
Description: as §3
Pharmacokinetic analysis.
(Cyprotex UK) using LCMSMS.

[6] = Brain tissue binding (fraction unbound); assay type: in vitro ADME; conditions: read-out: Brain tissue (fu)
Text: Table 1. Key data for lead optimization. SD, standard deviation of the mean; SE, standard error of the mean; fu, fraction unbound; ND, not determined. | column: Brain tissue (fu)

[7] = Plasma protein binding (fraction unbound); assay type: in vitro ADME; conditions: read-out: Plasma protein (fu)
[8] = tested on: CRFK and CRFK-TRIMCypA cells; test: MTT viability of CRFK and CRFK-TRIMCypA cells; assay type: cell-based, Feline; conditions: 48 hours, up to 20 μM
Description: Assay for cellular CypA selectivity
bromide (MTT) assay (Sigma) was performed.
100 μL solubilisation solution (10 % SDS

[9] = tested on: mitochondrial permeability transition pore (mPTP); test: Calcium retention capacity (CRC) assay in isolated liver mitochondria; assay type: biochemical, rat
TRIM-CypA = molecular target: T1, TRIM-CypA (Homo sapiens, UniProt P62937+Q6PIZ9); assay type: cell-based; conditions: CRFK-TRIMCypA cells; 0.5-20 μM; 48 hours; GFP-positive cells by flow cytometry
T1 construct: expressed in transfected cells; host or cells: CRFK (Crandell-Rees Feline Kidney) cells transduced with MLV EXN-TRIM-CypA vector, G418 selected

[10] = Pharmacokinetic study, plasma and brain levels by LC-MS/MS;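 note: ABH mice, four per group, dosed intraperitoneally, plasma and brain taken at set times after euthanasia, drug levels quantified by LC-MS/MS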
Description: as §3
Pharmacokinetic analysis.
(Cyprotex UK) using LCMSMS.

Sequence of hERG (Q12809 whole entry): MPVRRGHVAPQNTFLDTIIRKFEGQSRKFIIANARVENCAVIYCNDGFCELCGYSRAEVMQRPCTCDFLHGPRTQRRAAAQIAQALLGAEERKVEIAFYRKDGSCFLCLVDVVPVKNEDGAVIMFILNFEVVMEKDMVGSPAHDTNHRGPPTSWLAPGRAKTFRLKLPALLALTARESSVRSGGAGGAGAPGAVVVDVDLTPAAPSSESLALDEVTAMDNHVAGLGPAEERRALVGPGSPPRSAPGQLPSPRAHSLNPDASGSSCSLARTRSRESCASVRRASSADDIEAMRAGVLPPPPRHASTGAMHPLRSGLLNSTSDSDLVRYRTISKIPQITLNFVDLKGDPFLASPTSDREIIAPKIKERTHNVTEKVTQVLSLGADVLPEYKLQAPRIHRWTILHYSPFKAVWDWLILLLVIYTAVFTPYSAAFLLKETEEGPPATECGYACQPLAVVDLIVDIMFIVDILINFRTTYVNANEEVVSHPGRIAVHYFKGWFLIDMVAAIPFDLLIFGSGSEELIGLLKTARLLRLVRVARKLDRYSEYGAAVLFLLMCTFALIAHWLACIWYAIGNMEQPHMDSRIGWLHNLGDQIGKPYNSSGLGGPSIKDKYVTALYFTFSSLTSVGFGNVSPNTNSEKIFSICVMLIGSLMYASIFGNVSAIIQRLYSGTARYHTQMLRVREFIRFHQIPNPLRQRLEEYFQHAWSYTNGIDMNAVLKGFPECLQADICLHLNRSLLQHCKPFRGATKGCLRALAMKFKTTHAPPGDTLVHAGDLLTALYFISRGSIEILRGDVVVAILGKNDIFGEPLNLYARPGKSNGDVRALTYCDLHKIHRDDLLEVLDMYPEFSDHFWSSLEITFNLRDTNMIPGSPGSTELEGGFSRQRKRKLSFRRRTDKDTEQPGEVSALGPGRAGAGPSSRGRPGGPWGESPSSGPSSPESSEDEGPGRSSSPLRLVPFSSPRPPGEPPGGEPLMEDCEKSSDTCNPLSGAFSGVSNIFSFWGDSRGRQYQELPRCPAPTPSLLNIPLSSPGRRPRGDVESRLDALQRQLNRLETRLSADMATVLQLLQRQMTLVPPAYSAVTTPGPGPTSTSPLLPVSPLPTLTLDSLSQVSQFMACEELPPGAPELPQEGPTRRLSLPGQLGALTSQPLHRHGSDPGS
Sequence of Cyclophilin A (CypA) (P62937 whole entry): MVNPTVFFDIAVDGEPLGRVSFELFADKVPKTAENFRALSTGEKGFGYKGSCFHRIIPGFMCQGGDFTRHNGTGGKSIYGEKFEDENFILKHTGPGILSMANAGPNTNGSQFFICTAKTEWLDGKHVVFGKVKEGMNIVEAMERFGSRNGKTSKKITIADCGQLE
Sequence of CypD (P30405 30-207): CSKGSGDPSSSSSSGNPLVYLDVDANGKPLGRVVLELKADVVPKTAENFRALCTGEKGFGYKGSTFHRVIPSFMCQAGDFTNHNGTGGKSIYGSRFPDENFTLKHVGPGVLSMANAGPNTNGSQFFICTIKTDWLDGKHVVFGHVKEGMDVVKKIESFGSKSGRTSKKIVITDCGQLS
T1 sequence (P62937 2-165, one chain of several): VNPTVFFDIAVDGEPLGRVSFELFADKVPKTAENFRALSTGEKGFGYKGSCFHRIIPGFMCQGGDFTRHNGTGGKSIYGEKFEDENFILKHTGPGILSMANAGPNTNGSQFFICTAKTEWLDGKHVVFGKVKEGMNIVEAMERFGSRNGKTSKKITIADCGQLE

For `COc1ccc2cc3[n+](cc2c1OC)CCc1cc2c(cc1-3)OCO2` [Berberine, berberine], the “Caco-2 cell line permeability AP-BL” value (Caco-2 cells; AP-BL) is listed as 2.59 ×10⁻⁶ cm/s, the “Caco-2 cell line permeability BL-AP” value (Caco-2 cells; BL-AP) is listed as 25.16 ×10⁻⁶ cm/s and the PAMPA permeability [1] is listed as 1 to 1.2 ×10⁻⁶ cm/s.

With `CC[C@@H]1NC(=O)[C@H]([C@H](O)[C@H](C)C/C=C/CCC[n+]2ccc(N3CCOCC3)c3ccc(C(F)(F)F)cc32)N(C)C(=O)[C@H](C(C)C)N(C)C(=O)[C@H](CC(C)C)N(C)C(=O)[C@H](CC(C)C)N(C)C(=O)[C@@H](C)NC(=O)[C@H](C)NC(=O)[C@H](CC(C)C)N(C)C(=O)[C@H](C(C)C)NC(=O)[C@H](CC(C)C)N(C)C(=O)CN(C)C1=O` [JP1-138] the hepatocyte CLint [2] was 7.62 µL/min/1e6 cells, the Ki (Cyclophilin A (CypA)) was 42 nM and the AUC [3] was 198 µg·h/mL. The AUC(0-inf) [3] was 226 µg·h/mL, the AUC(0-t) [3] was 216 µg·h/mL and the half-life [3] was 5.81 h. For the same compound, the level at time molar at 24 h (in vivo) was 391 nM, the level at 24 h (in vivo) was 592 ng/mL and the inhibition at 25 µM (hERG) was 37.7%. For the same compound, the Ki (CypD) was 64 ± 16 nM, the hepatocyte CLint [4] was 9.61 µL/min/1e6 cells and the “Brain AUC as % of the plasma AUC” value [5] was “about 2%”. For the same compound, the Cl_obs [5] was 4.43 × 10^−05 (mg/kg)/(ng/ml).hour and the fraction unbound [6] was 0.00084.

Work on `CC[C@@H]1NC(=O)[C@H]([C@H](O)[C@H](C)C/C=C/CCC[n+]2ccc(N3CCCCC3)c3ccc(C(F)(F)F)cc32)N(C)C(=O)[C@H](C(C)C)N(C)C(=O)[C@H](CC(C)C)N(C)C(=O)[C@H](CC(C)C)N(C)C(=O)[C@@H](C)NC(=O)[C@H](C)NC(=O)[C@H](CC(C)C)N(C)C(=O)[C@H](C(C)C)NC(=O)[C@H](CC(C)C)N(C)C(=O)CN(C)C1=O` [JP1-164] yielded a hepatocyte CLint [2] of 22.4 µL/min/1e6 cells, an AUC(0-inf) [3] of 141 µg·h/mL and an AUC(0-t) [3] of 134 µg·h/mL. The half-life [3] was 5.68 h, the level at time molar at 24 h (in vivo) was 380 nM and the level at 24 h (in vivo) was 574 ng/mL. It also gave an inhibition at 25 µM (hERG) of 14.2%, a fraction unbound [7] of 0.69 and a hepatocyte CLint [4] of 5.89 µL/min/1e6 cells. The Cl_obs [5] was 7.09 × 10^−05 (mg/kg)/(ng/ml).hour and the fraction unbound [6] was 0.01.

For `CC[C@@H]1NC(=O)[C@H]([C@H](O)[C@H](C)C/C=C/CCC[n+]2ccc(N(C)C)c3ccc(C(F)(F)F)cc32)N(C)C(=O)[C@H](C(C)C)N(C)C(=O)[C@H](CC(C)C)N(C)C(=O)[C@H](CC(C)C)N(C)C(=O)[C@@H](C)NC(=O)[C@H](C)NC(=O)[C@H](CC(C)C)N(C)C(=O)[C@H](C(C)C)NC(=O)[C@H](CC(C)C)N(C)C(=O)CN(C)C1=O` [JW76], the hepatocyte CLint [2] was 5.62 µL/min/1e6 cells, the “Toxicity to non-restricting and restricting cells (MTT)” value [8] was “not toxic at any concentration tested” and the CRC inhibition % ([9]; Table S4 / Fig. S2, rat liver mitochondria, 500 nM, (Treated-NonTreated)/NonTreated)*100) was 54.7%. For the same compound, the “CRC % inhibition at 10 nM” value ([9]; Table S7, 10 nM) was 32.9%, the “hERG activity” value (hERG) was “little hERG activity” and the inhibition at 25 µM (hERG) was 16.3%. The fraction unbound [7] was 0.0039, the hepatocyte CLint [4] was 6.81 µL/min/1e6 cells and the “Rescue of HIV-1 infectivity of restricting (TRIM-CypA) cells” value (TRIM-CypA) was “rescued infectivity poorly and only at 20 μM”. For the same compound, the level at 1 h ([10]; ABH, mouse, brain, ip, Brain ng/mL, mice, 1 h) was 668 ng/mL, the level at 4 h ([10]; ABH, mouse, brain, ip, Brain ng/mL, mice, 4 h) was 545 ng/mL and the level at 1 h ([10]; ABH, mouse, plasma, ip, Plasma (ng/mL), mice, 1 h) was 50800 ng/mL. For the same compound, the “Detectability in the brain at 48 hours” value ([10]; longer-term pharmacokinetic study, 48 hours) was “not detectable”, the “Brain” value ([10]; mice, 1 h) was 668 ng/mL and the AUC ([10]; mouse, in vivo) was 67 µg·h/mL.
